The NIST ThermoML archive (doi:10.1016/j.jct.2005.10.019)

Columns and labels:
[1] = 298.15 K; 101.33 kPa; Liquid
[2] = excess molar enthalpy (molar enthalpy of mixing); xn = mol fraction of the nth substance listed; details: 298.15 K, 101 kPa, Liquid

COC(=O)[C@H](C)CO [(2R)-3-hydroxy-2-methyl-propanoic acid methyl ester]
Details	mass density [kg/m3]
[1]	1067.5

COC(=O)[C@H](C)CO [(2R)-3-hydroxy-2-methyl-propanoic acid methyl ester] + COC(=O)[C@@H](C)CO
[2]
Details	excess molar enthalpy [kcal/mol]
x2 = 0.08854	0.000741
x2 = 0.08893	0.000787
x2 = 0.08959	0.00072
x2 = 0.1627	0.00131
x2 = 0.1633	0.00127
x2 = 0.1645	0.0013
x2 = 0.2257	0.00171
x2 = 0.2265	0.00168
x2 = 0.2279	0.00172
x2 = 0.2798	0.00199
x2 = 0.2808	0.00198
x2 = 0.2825	0.002
x2 = 0.3269	0.00218
x2 = 0.328	0.00217
x2 = 0.3298	0.00221
x2 = 0.3682	0.00232
x2 = 0.3693	0.00231
x2 = 0.3713	0.00234
x2 = 0.4048	0.00241
x2 = 0.4059	0.00239
x2 = 0.4079	0.00242
x2 = 0.4373	0.00247
x2 = 0.4385	0.00246
x2 = 0.4405	0.00248
x2 = 0.4665	0.00251
x2 = 0.4677	0.00249
x2 = 0.4697	0.0025
x2 = 0.4928	0.00251
x2 = 0.4939	0.0025
x2 = 0.496	0.0025
x2 = 0.5037	0.00253
x2 = 0.5048	0.00253
x2 = 0.53	0.00252
x2 = 0.5311	0.00252
x2 = 0.5592	0.00248
x2 = 0.5602	0.00249
x2 = 0.5918	0.00242
x2 = 0.5928	0.00243
x2 = 0.6285	0.00233
x2 = 0.6294	0.00233
x2 = 0.6699	0.00218
x2 = 0.6709	0.00218
x2 = 0.7173	0.00196
x2 = 0.7182	0.00198
x2 = 0.7718	0.00167
x2 = 0.7726	0.00168
x2 = 0.8354	0.00125
x2 = 0.836	0.00126
x2 = 0.9103	0.000702
x2 = 0.9107	0.000702

ClC[C@H]1CO1 [(2R)-(chloromethyl)-oxirane]
Details	mass density [kg/m3]
[1]	1093.3

ClC[C@H]1CO1 [(2R)-(chloromethyl)-oxirane] + ClC[C@@H]1CO1
[2]
Details	excess molar enthalpy [kcal/mol]
x2 = 0.01821	0.000204
x2 = 0.03578	0.000396
x2 = 0.05272	0.000577
x2 = 0.05939	0.000663
x2 = 0.06908	0.000741
x2 = 0.08489	0.000891
x2 = 0.1002	0.00103
x2 = 0.1121	0.00114
x2 = 0.1149	0.00116
x2 = 0.1292	0.00128
x2 = 0.1373	0.00133
x2 = 0.1431	0.00139
x2 = 0.1565	0.0015
x2 = 0.1593	0.00151
x2 = 0.1695	0.00159
x2 = 0.1706	0.00162
x2 = 0.1821	0.00169
x2 = 0.1943	0.00178
x2 = 0.2016	0.00181
x2 = 0.2399	0.00203
x2 = 0.2414	0.00209
x2 = 0.2748	0.00227
x2 = 0.2915	0.00239
x2 = 0.3065	0.00236
x2 = 0.3231	0.0025
x2 = 0.3356	0.00249
x2 = 0.3624	0.00263
x2 = 0.3693	0.00266
x2 = 0.3816	0.00275
x2 = 0.387	0.0027
x2 = 0.3889	0.00272
x2 = 0.4009	0.00275
x2 = 0.4099	0.00279
x2 = 0.417	0.00276
x2 = 0.4311	0.00279
x2 = 0.4384	0.00282
x2 = 0.4431	0.00282
x2 = 0.4498	0.00286
x2 = 0.4508	0.00278
x2 = 0.4514	0.00285
x2 = 0.4837	0.00286
x2 = 0.4882	0.00289
x2 = 0.4884	0.00286
x2 = 0.5071	0.00291
x2 = 0.5269	0.00284
x2 = 0.5337	0.00287
x2 = 0.5394	0.00285
x2 = 0.5525	0.00286
x2 = 0.5886	0.0028
x2 = 0.5902	0.00281
x2 = 0.6096	0.00273
x2 = 0.6221	0.00272
x2 = 0.6561	0.00261
x2 = 0.7008	0.0024
x2 = 0.741	0.00221
x2 = 0.7793	0.00196
x2 = 0.7927	0.00187
x2 = 0.8067	0.00171
x2 = 0.8211	0.00161
x2 = 0.8241	0.00165
x2 = 0.8361	0.00151
x2 = 0.8513	0.00144
x2 = 0.8516	0.00137
x2 = 0.8677	0.00129
x2 = 0.8844	0.00113
x2 = 0.9018	0.000956
x2 = 0.9198	0.000791
x2 = 0.9387	0.000621
x2 = 0.9583	0.000422
x2 = 0.9787	0.000218

COC(=O)[C@@H](C)CO [(2S)-3-hydroxy-2-methyl-propanoic acid methyl ester]
Details	mass density [kg/m3]
[1]	1069.6

ClC[C@@H]1CO1 [(2S)-chloromethyl-oxirane]
Details	mass density [kg/m3]
[1]	1093.5

C[C@@H]1COC(=O)O1 [(R)-4-methyl-1,3-dioxolan-2-one]
Details	mass density [kg/m3]
[1]	1199.4
